Results taken from ChEMBL document CHEMBL5226390, “Synthesis and Structure-Activity Analysis of Icaritin Derivatives as Potential Tumor Growth Inhibitors of Hepatocellular Carcinoma Cells” (J Nat Prod, 2023).

Experiments:
[1] = tested on: Hep 3B2; experiment: Antiproliferative activity against human Hep3B cells assessed as reduction in cell viability incubated for 48 hrs by MTT assay; assay type: functional, cell-based
[2] = tested on: SMMC-7721; experiment: Antiproliferative activity against human SMMC-7721 cells assessed as reduction in cell viability incubated for 48 hrs by MTT assay; assay type: functional, cell-based
[3] = tested on: HepG2; experiment: Antiproliferative activity against human HepG2 cells assessed as reduction in cell viability incubated for 48 hrs by MTT assay; assay type: functional, cell-based; details: HepG2, 48 h
[4] = Solubility of the compound in water incubated for 24 hrs under stirring conditions by HPLC analysis; assay type: physicochemical
[5] = Homo sapiens, SMMC-7721, 48 h, read-out: IC50

| IC50 ([2]; smmc-7721) | IC50 [3] [µM] | IC50 [2, 5] [µM] | solubility at 24 h [4] [µg/mL] | Structure (SMILES) | IC50 [1] [µM] |
| --- | --- | --- | --- | --- | --- |
| Not Active | > 10 | – | – | COc1ccc(-c2oc3c(CC=C(C)C)c(OCCN4CCNCC4)cc(O)c3c(=O)c2O[C@H]2O[C@H](C)[C@@H](O)[C@H](O)[C@@H]2O)cc1 | > 10 |
| Not Active | > 10 | – | – | COc1ccc(-c2oc3c(CC=C(C)C)c(OCCN4CCOCC4)cc(O)c3c(=O)c2O[C@H]2O[C@H](C)[C@@H](O)[C@H](O)[C@@H]2O)cc1 | 6.1 |
| Not Active | > 10 | – | – | COc1ccc(-c2oc3c(CC=C(C)C)c(OCCCCN(C)C)cc(O)c3c(=O)c2O[C@H]2O[C@H](C)[C@@H](O)[C@H](O)[C@@H]2O)cc1 | 8.7 |
| – | 7.4 | > 10 | – | COc1ccc(-c2oc3c(CC=C(C)C)c(OCCCN4CCOCC4)cc(O)c3c(=O)c2O[C@H]2O[C@H](C)[C@@H](O)[C@H](O)[C@@H]2O)cc1 | 8 |
| – | 5.5 | > 10 | – | CCN(CC)CCCOc1cc(O)c2c(=O)c(O[C@H]3O[C@H](C)[C@@H](O)[C@H](O)[C@@H]3O)c(-c3ccc(OC)cc3)oc2c1CC=C(C)C | > 10 |
| – | 5.5 | 8.8 | – | CNC(=O)c1cc(Oc2ccc(NC(=O)Nc3ccc(Cl)c(C(F)(F)F)c3)cc2)ccn1 [SORAFENIB] | 7.7 |
| Not Active | > 10 | – | – | COc1ccc(-c2oc3c(CC=C(C)C)c(OCCCN(C)C)cc(O)c3c(=O)c2O[C@H]2O[C@H](C)[C@@H](O)[C@H](O)[C@@H]2O)cc1 | > 10 |
| – | > 10 | > 10 | – | COc1ccc(-c2oc3c(CC=C(C)C)c(OCCCCC(=O)NO)cc(O)c3c(=O)c2O[C@H]2O[C@H](C)[C@@H](O)[C@H](O)[C@@H]2O)cc1 | > 10 |
| Not Active | > 10 | – | – | COc1ccc(-c2oc3c(CC=C(C)C)c(OCCCN4CCNCC4)cc(O)c3c(=O)c2O[C@H]2O[C@H](C)[C@@H](O)[C@H](O)[C@@H]2O)cc1 | 3.8 |
| Not Active | > 10 | – | – | CCCCN(CCCC)CCCOc1cc(O)c2c(=O)c(O[C@H]3O[C@H](C)[C@@H](O)[C@H](O)[C@@H]3O)c(-c3ccc(OC)cc3)oc2c1CC=C(C)C | 9.3 |
| – | > 10 | > 10 | – | COc1ccc(-c2oc3c(CC=C(C)C)c(OC[C@H](O)CN4CCCC4)cc(O)c3c(=O)c2O[C@H]2O[C@H](C)[C@@H](O)[C@H](O)[C@@H]2O)cc1 | > 10 |
| – | > 10 | > 10 | < 10 | COc1ccc(-c2oc3c(CC=C(C)C)c(O)cc(O)c3c(=O)c2O)cc1 [ICARITIN] | 0.9 |
| – | 6.5 | 7.1 | – | COc1ccc(-c2oc3c(CC=C(C)C)c(OCCCCN4CCC(O)CC4)cc(O)c3c(=O)c2O[C@H]2O[C@H](C)[C@@H](O)[C@H](O)[C@@H]2O)cc1 | 5.7 |
| – | > 10 | > 10 | – | COc1ccc(-c2oc3c(CC=C(C)C)c(OCCCCCC(=O)NO)cc(O)c3c(=O)c2O[C@H]2O[C@H](C)[C@@H](O)[C@H](O)[C@@H]2O)cc1 | > 10 |
| – | > 10 | > 10 | – | COc1ccc(-c2oc3c(CC=C(C)C)c(OC[C@H](O)CN(C)C)cc(O)c3c(=O)c2O[C@H]2O[C@H](C)[C@@H](O)[C@H](O)[C@@H]2O)cc1 | > 10 |
| Not Active | > 10 | – | – | CCN(CC)CCOc1cc(O)c2c(=O)c(O[C@H]3O[C@H](C)[C@@H](O)[C@H](O)[C@@H]3O)c(-c3ccc(OC)cc3)oc2c1CC=C(C)C | > 10 |
| Not Active | > 10 | – | – | COc1ccc(-c2oc3c(CC=C(C)C)c(OCCOCCN4CCOCC4)cc(O)c3c(=O)c2O[C@H]2O[C@H](C)[C@@H](O)[C@H](O)[C@@H]2O)cc1 | > 10 |
| – | 2.5 | 6.5 | – | CCN(CC)CCCCCCOc1cc(O)c2c(=O)c(O[C@H]3O[C@H](C)[C@@H](O)[C@H](O)[C@@H]3O)c(-c3ccc(OC)cc3)oc2c1CC=C(C)C | 8.9 |
| – | > 10 | > 10 | – | CCN(CC)C[C@@H](O)COc1cc(O)c2c(=O)c(O[C@H]3O[C@H](C)[C@@H](O)[C@H](O)[C@@H]3O)c(-c3ccc(OC)cc3)oc2c1CC=C(C)C | 8.3 |
| – | 2.5 | 4.8 | – | COc1ccc(-c2oc3c(CC=C(C)C)c(OCCCCCCN4CCCC4)cc(O)c3c(=O)c2O[C@H]2O[C@H](C)[C@@H](O)[C@H](O)[C@@H]2O)cc1 | 7.6 |
| – | > 10 | > 10 | – | COc1ccc(-c2oc3c(CC=C(C)C)c(OCCCC(=O)NO)cc(O)c3c(=O)c2O[C@H]2O[C@H](C)[C@@H](O)[C@H](O)[C@@H]2O)cc1 | > 10 |
| Not Active | > 10 | – | – | COc1ccc(-c2oc3c(CC=C(C)C)c(OCCOCCN4CCNCC4)cc(O)c3c(=O)c2O[C@H]2O[C@H](C)[C@@H](O)[C@H](O)[C@@H]2O)cc1 | > 10 |
| – | 3.8 | 6.4 | – | CCN(CC)CCCCOc1cc(O)c2c(=O)c(O[C@H]3O[C@H](C)[C@@H](O)[C@H](O)[C@@H]3O)c(-c3ccc(OC)cc3)oc2c1CC=C(C)C | 5.4 |
| Not Active | 9.2 | – | – | COc1ccc(-c2oc3c(CC=C(C)C)c(OCCN(C)C)cc(O)c3c(=O)c2O[C@H]2O[C@H](C)[C@@H](O)[C@H](O)[C@@H]2O)cc1 | > 10 |
| – | 7.6 | 6.4 | – | COc1ccc(-c2oc3c(CC=C(C)C)c(OCCCCN4CCC(N5CCCCC5)CC4)cc(O)c3c(=O)c2O[C@H]2O[C@H](C)[C@@H](O)[C@H](O)[C@@H]2O)cc1 | 3.9 |
| Not Active | > 10 | – | – | COc1ccc(-c2oc3c(CC=C(C)C)c(OCCCN)cc(O)c3c(=O)c2O[C@H]2O[C@H](C)[C@@H](O)[C@H](O)[C@@H]2O)cc1 | > 10 |
| – | > 10 | > 10 | – | COc1ccc(-c2oc3c(CC=C(C)C)c(OCCOCCOCCOCCN4CCCC4)cc(O)c3c(=O)c2O[C@H]2O[C@H](C)[C@@H](O)[C@H](O)[C@@H]2O)cc1 | 9.8 |
| Not Active | 7.4 | – | – | COc1ccc(-c2oc3c(CC=C(C)C)c(OCCCCN4CCNCC4)cc(O)c3c(=O)c2O[C@H]2O[C@H](C)[C@@H](O)[C@H](O)[C@@H]2O)cc1 | 8 |
| Not Active | > 10 | – | – | COc1ccc(-c2oc3c(CC=C(C)C)c(OCCN4CCC(N5CCCCC5)CC4)cc(O)c3c(=O)c2O[C@H]2O[C@H](C)[C@@H](O)[C@H](O)[C@@H]2O)cc1 | > 10 |
| – | > 10 | > 10 | – | COc1ccc(-c2oc3c(CC=C(C)C)c(OCCOCCOCCN4CCCC4)cc(O)c3c(=O)c2O[C@H]2O[C@H](C)[C@@H](O)[C@H](O)[C@@H]2O)cc1 | > 10 |
